# In US20080153792A1, “Drug Identification and Treatment Method” (priority 2006, published 2008):
# Marks after values point to notes of the source that are not given here.
# Experiments:
# [1] = tested on: osteoblasts and osteocytes in murine vertebral bone; experiment: osteoblast and osteocyte apoptosis in ovariectomized mice (TUNEL); assay type: in vivo, mouse; details: ovariectomized Swiss Webster mice
# Source text: The degree of apoptosis of osteoblasts and osteocytes in murine vertebral bone as a function of estrogen deficiency was examined. Swiss Webster mice (four months old) were ovariectomized. Twenty-eight days later, the animals were sacrificed, vertebrae were isolated, fixed and embedded, and then undecalcified in methacrylate.
# [2] = tested on: 11β-HSD1; experiment: expression of 11β-HSD1 in osteoblasts of treated mice; assay type: in vivo, mouse; details: administration to mice
# [3] = metabolic stability in liver microsomes: rat; details: 30 min
# Protocol: Metabolic stability. The metabolic stability of selected compounds was examined in vitro using microsomes obtained from liver tissue according to the following protocol.
# The protocol was performed as follows. (1) Prepared 0.5 mM compound in acetonitrile/water 35:65. […] (2) Set up samples as follows. […] Tubes for each compound was follows: 1-0′ 2-0′ 3-0′ 4-0′* 5-0′* 6-5 μM 7-1 μM 8-30′ 9-30′ 10-30′ where * designated denatured microsome negative control reaction tubes. For additional compounds numbering was started at 11, 21, 31, etc. (3) Added 315 μL PBS (pH 7.3-7.5) to each tube. Added 10 μL of the appropriate test article solution to each tube. (4) The internal standard/acetonitrile solution. (5) The NADPH regenerating system (NRS) was 125 μL per tube. To PBS added 1.7 mg/ml NADP, 7.8 mg/ml glucose-6-phosphate, 6 units/mL glucose-6-phosphate dehydrogenase. Fresh NRS for each experiment was kept on ice until use. (6) Each reaction used 125 μL of NRS in each tube. (7) Removed liver microsome preparation from −80° C. freezer and thawed in a room temperature water bath. The microsomal preparation was at a concentration of 20 mg/ml. […] (13) The methyl-t-butyl ether was transferred from each tube to a fresh tube and the solvent was evaporated ether under nitrogen and the precipitate was then resuspended in 100 μL acetonitrile/water 35:65 and analyzed by LCMS.
# [4] = tested on: mice treated daily with dexamethasone; experiment: osteoprotegerin levels in dexamethasone treated mice; assay type: in vivo, mouse; details: vehicle, dexamethasone 10 μg/day and compound at 4 mg/kg/day; p<0.05
# Protocol: Osteoprotegerin levels in mice that were treated with vehicle and dexamethasone at 10 μg/day (positive control group) had 3.3 pMol/L osteoprotegerin, while animals treated with vehicle, dexamethasone and 17α-ethynyl-5-androstene-3β,7β,17β-triol at 4 mg/kg/day had 6.4 pMol/L osteoprotegerin (p<0.05).
# [5] = tested on: estrogen receptor-s or estrogen receptor-s; experiment: interaction with estrogen receptors
# [6] = tested on: MG-63 cells; experiment: reversal of glucocorticoid effects in MG-63 osteosarcoma cells; assay type: cell-based, human; details: 1 nM compound; 7 hours; 30 nM dexamethasone
# [7] = tested on: NF-κB in nuclei from spleen cells; experiment: kinetic analysis of NF-kB inhibition in vivo after LPS, Example 9; set-up: species or system mouse; details: about 40 mg/kg i.p. 24 h before LPS
# Protocol: Kinetic analysis of NF-kB inhibition in vivo. […] The drug was injected 24 hours before intraperitoneal injection of bacterial LPS (about an LD50/24). The study used two groups of 12 animals, vehicle control or drug administered 24 hours before LPS challenge. Spleens were harvested from 3 animals from both groups just before LPS challenge and at 1.5, 2.0 and 2.5 hours after administration of LPS.
# Maximum NF-κB activation after LPS administration occurred at 1.5 hours in the vehicle controls, which was 4-fold increased over the pre-LPS level of activated NF-κB. The values for the vehicle control and drug treated animals are relative optical density units from ELISA measurement of NF-κB in nuclei from spleen cells.
# [8] = tested on: DBA/1Lac/J mice, collagen induced arthritis; experiment: collagen induced arthritis (CIA), Foxp3+ cells and clinical score; assay type: in vivo, mouse
# Protocol: Increase of CD4^+CD25^+ T regulatory cells or their activity in vivo. The compound 17α-ethynylandrost-5-ene-3β,7β,17β-triol was administered to mice essentially as described in a previously described collagen induced arthritis animal model. H. Offner et al., Clin. Immunol., 110:181-190, 2006.
# DBA/1Lac/J mice were used for the study. The mice were obtained from Jackson Laboratories (Bar Harbor, Harbor, […].) and housed in accordance with applicable institutional guidelines. Bovine type II collagen (bCll) was used to induce collagen induced arthritis (CIA) by immunizing 8-week-old mice with 200 μg of bCII emulsified 1:1 with CFA containing 200 μg Mycobacterium tuberculosis (100 μL; Difco, Detroit, Mich.). The antigen was injected intradermally at the base of the tail. The animals were monitored for 4-7 weeks to observe the onset and progression of the disease post-immunization. The arthritic severity was evaluated with a grading system for each paw according to the following scale: 0=no redness or swelling; 1=slight swelling in ankle or redness in foot; 2=progressed swelling and inflammation and redness from ankle to mid foot; 3=swelling and inflammation of entire foot; 4=swelling and inflammation of entire foot including toes.
# After immunization, the mice were treated with the drug at 40 mg/kg/day in vehicle by oral gavage beginning at the start of observable clinical disease (beginning at about 26-27 days after immunization). The vehicle that was used for the protocol was 30% cyclodextrin-sulfobutylether in water. The cyclodextrin-sulfobutylether was obtained commercially (Captisol™ available at cyclexinc.com). The drug formulation was 20 mg drug/mL in the vehicle.
# [9] = tested on: human peripheral blood mononuclear cells (PBMC); experiment: human mixed lymphocyte reaction (MLR); assay type: cell-based; details: either 300 nM or 30 nM; 6 days; p>0.05
# Protocol: Human mixed lymphocyte reaction (MLR). The capacity of 3β,16α-dihydroxy-17-oxoandrostane, 3β,17β-dihydroxy-16-oxoandrostane, 17α-ethynylandrost-5-ene-3β,7β,17β-triol, and 17β-aminoandrost-5-ene-3β-ol to affect antigen specific stimulation in which human T lymphocytes respond to a specific foreign antigen (major histocompatibility complex).
# Blood samples were obtained from 3 (2 males, […]) fasting, healthy human volunteers of 23-31 years old. […] The subjects were bled between […] to limit possible fluctuations in the circulating levels of hormones or cytokines that could have influenced the in vitro responses of their lymphocytes. Peripheral blood mononuclear cells (PBMC) were isolated by centrifugation on Ficoll-Hypaque (density 1.077, Biochrom AG, Berlin, Germany) gradients and resuspended in culture medium (RPMI 1640 supplemented with 2 mM L-glutamine, penicillin (100 U/mL) and streptomycin ([…]) (Invitrogen s.rl., Milan, Italy). Autologous (responder) inactivated plasma was used at 10%. Five hundred thousand responder PBMC (PBMCr) and 500,000 allogeneic irradiated (30 Gy) stimulator PBMC (PBMCs) were mixed at a ratio of 1:1 in 200 μL medium and cultured for 6 days in flat bottom 96 well plates (Nunc, Roskilde, Denmark) at a concentration of 300 nM or 30 nM for each of the 4 compounds. The compounds were dissolved in ethanol and then diluted to the desired concentration with culture medium leading to a final solution containing 0.01% of ethanol. This vehicle was used as control. Controls also included PBMCr and PBMCs cultured separately. During the last 8 hours of the culture period the PBMC were pulsed with 1 μCi/well [^3H] thymidine (Amersham, Milan, Italy). The cells were then harvested and radioactivity incorporation measured with a beta cell counter. The mean cpm of quadruplicate wells was calculated. Proliferation of T cells was expressed as a stimulation index: SI=cpm (PMBCs xPBMCr)/cpm (PBMCr)+cpm (PBMCs). Statistical analysis was performed using the Student's t test. The cpm obtained from quadruplicate of each test compound were compared to proliferative responses obtained in control PBMCr and PBMCs cultured in the presence of the vehicle. Differences were considered significant at p<0.05.
# [10] = 40 mg/kg/day oral gavage from onset of clinical disease, n = 3
smiles,measurement,setting,value
"C#C[C@]1(O)CC[C@H]2[C@@H]3[C@@H](O)C=C4C[C@@H](O)CC[C@]4(C)[C@H]3CC[C@@]21C [17α-ethynylandrost-5-ene-3β,7β,17β-triol]",osteoblast and osteocyte apoptosis,[1],reduce apoptosis
same,decrease of expression of 11β-HSD1 in osteoblasts,[2],about 50%
same,"parent remaining, rat microsome instead of mouse preparation",[3],86%* (30 min)
same,osteoprotegerin,[4],6.4 pmol/L
same,interaction with estrogen receptor-s or estrogen receptor-s,[5],do not interact
same,reversal of the decrease in osteoprotegerin synthesis,[6],completely reversed
same,activated NF-κB in spleen cell nuclei (ELISA),[7]; 0 hours (just before LPS),22 relative optical density units
same,activated NF-κB in spleen cell nuclei (ELISA),[7]; 1.5 hours after LPS,2 relative optical density units
same,activated NF-κB in spleen cell nuclei (ELISA),[7]; 2.0 hours after LPS,7 relative optical density units
same,activated NF-κB in spleen cell nuclei (ELISA),[7]; 2.5 hours after LPS,9 relative optical density units
same,CD4^+Foxp3^+ cells in whole splenocytes,[8]; [10],1.34% ± 0.05
same,Total Foxp3^+ cells in whole splenocytes,[8]; [10],2.39% ± 0.16
same,Foxp3+ CD4^+ cells by cell sorter analysis,"[8]; 40 mg/kg/day, control animals 1.0%",1.4%
same,maximum mean clinical score,"[8]; at day 34, vehicle about 6.8-8 between days 34-49",about 5
same,mean clinical score,[8]; by day 49,about 3
same,immune suppression in the MLR,[9],not appreciably immune suppressive
